These results are taken from patent US20210206760A1, “PHENYL-SUBSTITUTED DIHYDRONAPHTHYRIDINE COMPOUND AND USE THEREOF” (SUNSHINE LAKE PHARMA CO., LTD., priority 2018, published 2021).

Molecules are shown by their SMILES.

A word on the IC50: it is the concentration at which inhibition is half-maximal.

In this experiment the target is T1, mineralocorticoid receptor (MR) (Homo sapiens, UniProt P08235).
T1 construct: expressed in transfected cells; host or cells: HEK293 (human embryonic kidney cells)
T1 sequence (P08235 726-964 limits assumed): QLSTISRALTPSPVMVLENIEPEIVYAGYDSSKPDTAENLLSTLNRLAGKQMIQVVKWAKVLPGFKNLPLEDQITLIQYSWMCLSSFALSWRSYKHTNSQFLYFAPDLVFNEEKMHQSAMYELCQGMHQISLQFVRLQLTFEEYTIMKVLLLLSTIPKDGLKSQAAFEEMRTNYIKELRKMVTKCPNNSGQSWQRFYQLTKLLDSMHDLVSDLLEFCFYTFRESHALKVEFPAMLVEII
The experiment can be described thus: Activity test in vitro: Gal4 DBD-MR LBD dual luciferase reporter assay in HEK293 cells. The class given is cell-based. As to conditions: HEK293 cells transfected with Gal4 DBD-MR LBD and firefly luciferase reporter; agonist aldosterone at EC80; 18 hours incubation; Renilla-corrected. An excerpt:
Example a Activity Test In Vitro
Utilizing the characteristics of luciferase binding to the substrate to produce a chemiluminescence reaction, the fused plasmid of the Gal4 DNA binding domain (DBD) containing the ligand binding domain (LBD) of mineralocorticoid receptor (MR) and the firefly luciferase reporter gene plasmid controlled by Gal4 UAS (upstream activation sequences) were transfected into human embryonic kidney cells (HEK293). The changes in mineralocorticoid receptor activity between before and after stimulation or the influence of different stimuli on mineralocorticoid receptor activity was judged by the level of firefly luciferase activity. At the same time, in order to reduce the impact of internal change factors on the accuracy of the experiment, the plasmid with Renilla luciferase gene was used as a control plasmid to transfect cells to provide an internal control for transcription activity, so that the test results were not interfered by changes in experimental conditions.
1) HEK293 cells were collected after trypsinization and the cell density was adjusted to 500,000 cells/mL;
2) FuGENE HD transfection reagent was added into the cell suspension;
3) The above cell suspension was seeded into a 96-well cell culture plate at a density of 100 μL/well, and incubated for 24 hours at 37° C. in 5% CO2;
4) A series of concentrations of the test compound solution and the EC80 concentration of agonist aldosterone were added into each well and incubated for 18 hours;
5) Firefly and Renilla luciferase signals were detected through Promega dual luciferase reporter assay system.
1) After obtaining the firefly luciferase signal (F) and the Renilla luciferase signal (R), using the Renilla luciferase signal for correction, i.e., the F/R value was used to calculate the subsequent inhibition rate;
2)% inhibition rate=(Max−X)/(Max−Min)×100%, where Max is the F/R value of the positive control well, Min is the F/R value of the negative control well, and X is the F/R value of test compound well of different concentrations;
3) IC50 calculation was performed by GraphPrism 5.0 mapping software.
In general terms: A reporter such as luciferase makes a cellular process visible.
The compound `COc1cc(C#N)ccc1C1C(C(N)=O)=C(C)Nc2c(C)cnc(OC3CCCC3)c21` (centres unmarked) [Example 8, 4-(4-Cyano-2-methoxyphenyl)-5-(cyclopentyloxy)-2,8-dimethyl-1,4-dihydro-1,6-naphthyridine-3-carboxamide] gave an IC50 of 7.74 nM. To `COc1cc(C#N)ccc1C1C(C(N)=O)=C(C)Nc2c(C)cnc(OCC3CCC3)c21` (centres unmarked) [Example 5, 4-(4-cyano-2-methoxyphenyl)-5-(cyclobutylmethoxy)-2,8-dimethyl-1,4-dihydro-1,6-naphthyridine-3-carboxamide] belongs 17.8 nM.

On to `COc1cc(C#N)ccc1C1C(C(N)=O)=C(C)Nc2c(C)cnc(OCC3CC3)c21` (centres unmarked) [Example 1, 4-(4-Cyano-2-methoxyphenyl)-5-(cyclopropylmethoxy)-2,8-dimethyl-1,4-dihydro-1,6-naphthyridine-3-carboxamide], for which the IC50 amounted to 19.4 nM.

Consider `COc1cc(C#N)ccc1C1C(C(N)=O)=C(C)Nc2c(C)cnc(OCC3CCCC3)c21` (centres unmarked) [Example 3, 4-(4-Cyano-2-methoxyphenyl)-5-(cyclopentylmethoxy)-2,8-dimethyl-1,4-dihydro-1,6-naphthyridine-3-carboxamide], for which the IC50 was 28.7 nM. To `COc1cc(C#N)ccc1C1C(C(N)=O)=C(C)Nc2c(C)cnc(OC3CCC3)c21` (centres unmarked) [Example 7, 4-(4-Cyano-2-methoxyphenyl)-5-(cyclobutyloxy)-2,8-dimethyl-1,4-dihydro-1,6-naphthyridine-3-carboxamide] belongs 3.44 nM.
